In US6875844B1, “Peptide compounds derived from a shifted ORF of the iCE gene” (Institut Gustave Roussy, priority 1999, dated 2005):

What was measured:
[1] = target: T1, HLA-B*0702 (Homo sapiens, UniProt P01889); assay: Binding and stability of peptide on T2 cells transfected with HLA-B*0702 (HLA-B7 expression by flow cytometry)
T1 construct: expressed in transfected cells; host or cells: T2 cells
Description: T2 cells were incubated at 26° C. for 16 hours in medium without serum containing peptides at a concentration of 50 μM. Then, the peptides were again added, and the cells were incubated at 37° C. At 30-min or 1-h intervals, aliquots of cells were harvested, and the change in HLA-B7 expression was monitored by flow cytometry using an anti-HLA-B7 mAB (HB59). By way of control, an HLA-A2-restricted HSP70 peptide was used. The peptide SPRWWPTCL is provided in SEQ ID NO: 2.
HLA-A2-binding peptide antigens upregulate the expression of HLA-A2 molecules on T2 cells (37). Similarly, T2 cells transfected with HLA-B*0702 (38) were used to analyze the binding capacity and the stability of the iCE peptide (FIG. 6). At […], the binding of the iCE peptide is stable over time for at least 4 h, unlike the control, which is the HLA-A2-restricted HSP70 peptide (14).

[2] = test system: autologous EBV-transformed B cells; assay: Target sensitization assay: 51Cr release lysis by CTL clone 3B8 of peptide-incubated autologous EBV-transformed B cells; format: cell-based, human; details: EBV-transformed B cells incubated with peptide, CTL clone 3B8 effector 30:1, chromium release after 4 h; read-out: Peptide concentration giving semi-maximal lysis
Description: 2000 EBV-transformed cells were incubated and labeled with 51Cr for 1 h in the presence of the HLA-B7-restricted iCE peptide (SPRWWPTCL; SEQ ID NO:2) or another control HLA-B7-restricted peptide (VISTVVANL; SEQ ID NO:9). Clone 3B8 was then added as an effector, in a ratio set at 30:1. Chromium release was measured after 4 h.
The cytolytic activity of the CTLs was determined in a standard ^51Cr release assay as previously described (22). Target cells (RCC and K562 cell lines) were labeled for 1 h with 50 μCi to 100 μCi of ^51Cr (Du Pont, NEN, Boston, Mass.) at 37° C., and 2×10^3 cells were seeded in 96-microwell plates in 100 μl of RPMI supplemented with 5% of FCS. […] The 96-microwell plates were incubated at 37° C. for 4 h, and ^51Cr release was determined in the harvested supernatants. […]
In order to reduce the nucleotide sequence encoding the antigen, several truncated cDNAs were obtained by PCR amplification. […] After examining the corresponding amino acid sequence, all possible nonamers and decamers were synthesized, and their ability to make autologous EBV-transformed B cells sensitive to lysis by 3B8 was evaluated.
Finally, an alternative ORF was found (a+1 translational open reading frame leading to a 453-nt ORF) with three ATGs in nt positions 476, 479 and 803, which encodes a nonamer (SPRWWPTCL) (SEQ ID NO: 2) in the minimum region of nt 763-855. […]

## SPRWWPTCL [nonamer encoded by the +1 alternative ORF of the iCE gene, with HLA-B7-anchoring residues at positions 2, 3 and 9]
[1]; T2 cells transfected with HLA-B*0702
  Stability of binding to T2 cells transfected with HLA-B*0702 (in words): stable with time
[1]; T2 cells transfected with HLA-B*0702, peptide at 50 mM (so in the source), 37° C.
  Time over which binding to HLA-B7 is stable: at least 4 h
[1]; binding assay by immunofluorescence using transfected T2 cells
  Binding to HLA-B*0702-presenting molecules (in words): binds
[2]
  EC50: < 1 µM
